{"source": "the NIST ThermoML archive (doi:10.1016/j.jct.2011.04.022)", "key": {"[1]": {"assay": "molar enthalpy of vaporization or sublimation", "conditions": "298.15 K; Crystal; Second Law analysis of vapor pressure data"}, "[2]": {"conditions": "Crystal, Calculated from knudsen effusion weight loss"}}, "note": "Several values for one entry are separate records, joined by “and”; a condition that tells them apart may be missing. Identical values can stand only once. Numbers after ± are expanded uncertainties."}
{"smiles": "Nc1ccccc1-n1cccc1", "note": "[1-(2-aminophenyl)pyrrole]", "values": [{"measurement": "molar enthalpy", "setting": "[1]", "value": "23.61 ± 0.191", "unit": "kcal/mol"}, {"measurement": "vapor or sublimation pressure", "setting": "[2]; 296.12 K", "value": "6.43e-05 ± 3.2e-06 kPa and 6.33e-05 ± 3.2e-06 kPa and 6.58e-05 ± 3.3e-06 kPa"}, {"measurement": "vapor or sublimation pressure", "setting": "[2]; 298.22 K", "value": "8.56e-05 ± 4.3e-06 kPa and 8.51e-05 ± 4.3e-06 kPa and 8.36e-05 ± 4.2e-06 kPa"}, {"measurement": "vapor or sublimation pressure", "setting": "[2]; 300.2 K", "value": "0.000112 ± 6e-06 kPa and 0.000108 ± 5e-06 kPa and 0.000107 ± 5e-06 kPa"}, {"measurement": "vapor or sublimation pressure", "setting": "[2]; 302.11 K", "value": "0.000137 ± 7e-06 kPa and 0.000144 ± 7e-06 kPa"}, {"measurement": "vapor or sublimation pressure", "setting": "[2]; 304.19 K", "value": "0.000179 ± 9e-06 kPa and 0.000182 ± 9e-06 kPa and 0.000178 ± 9e-06 kPa"}, {"measurement": "vapor or sublimation pressure", "setting": "[2]; 306.19 K", "value": "0.00024 ± 1.2e-05 kPa and 0.000228 ± 1.1e-05 kPa and 0.000227 ± 1.1e-05 kPa"}, {"measurement": "vapor or sublimation pressure", "setting": "[2]; 308.08 K", "value": "0.000301 ± 1.5e-05 kPa and 0.0003 ± 1.5e-05 kPa and 0.000297 ± 1.5e-05 kPa"}, {"measurement": "vapor or sublimation pressure", "setting": "[2]; 310.2 K", "value": "0.000388 ± 1.9e-05 kPa and 0.000386 ± 1.9e-05 kPa and 0.000377 ± 1.9e-05 kPa"}, {"measurement": "vapor or sublimation pressure", "setting": "[2]; 312.2 K", "value": "0.000503 ± 2.5e-05 kPa and 0.000481 ± 2.4e-05 kPa and 0.00048 ± 2.4e-05 kPa"}, {"measurement": "vapor or sublimation pressure", "setting": "[2]; 314.11 K", "value": "0.000643 ± 3.2e-05 kPa and 0.000635 ± 3.2e-05 kPa and 0.000623 ± 3.1e-05 kPa"}, {"measurement": "vapor or sublimation pressure", "setting": "[2]; 316.18 K", "value": "0.000816 ± 4.1e-05 kPa and 0.000808 ± 4e-05 kPa and 0.000788 ± 3.9e-05 kPa"}, {"measurement": "vapor or sublimation pressure", "setting": "[2]; 318.18 K", "value": "0.001059 ± 0.00011 kPa and 0.001011 ± 0.0001 kPa and 0.000991 ± 5e-05 kPa"}]}
